From ChEMBL document CHEMBL6153138, “Discovery of Novel Aromatic Urea-Imidazole Salt Derivatives for Cancer Therapy via Targeting ERK1/2” (J Med Chem, 2025)
Calls of active or inactive are those of the source. The rule behind the calls is not given here.

Tests used:
[1] = system: 5637; experiment: Antiproliferative activity against human 5637 cells incubated for 48 hrs by CCK-8 method; format: functional, cell-based; conditions: Homo sapiens, 5637, 48 h
[2] = system: MDA-MB-468; experiment: Antiproliferative activity against human MDA-MB-468 cells incubated for 48 hrs by CCK-8 method; format: functional, cell-based; conditions: MDA-MB-468, 48 h
[3] = system: MCF7; experiment: Induction of autophagy in human MCF7 cells assessed as increase in ATG5 level at 5 uM by Western blot analysis; format: functional, cell-based
[4] = system: A549; experiment: Antiproliferative activity against human A549 cells incubated for 48 hrs by CCK-8 method; format: functional, cell-based; conditions: A549, 48 h
[5] = system: MCF-10A; experiment: Antiproliferative activity against human MCF-10A cells incubated for 48 hrs by CCK-8 method; format: functional, cell-based
[6] = system: MCF7; experiment: Induction of autophagy in human MCF7 cells assessed as increase in Beclin-1 level at 5 uM by Western blot analysis; format: functional, cell-based
[7] = system: HCC1937; experiment: Antiproliferative activity against human HCC1937 cells incubated for 48 hrs by CCK-8 method; format: functional, cell-based; conditions: HCC1937, 48 h
[8] = system: MCF7; experiment: Antiproliferative activity against human MCF7 cells incubated for 48 hrs by CCK-8 method; format: functional, cell-based; conditions: MCF7, 48 h
[9] = system: MCF7; experiment: Activation of ERK1/2 pathway in human MCF7 cells assessed as increase in EGF-induced p90RSK phosphorylation at 5 uM incubated for 30 mins by Western blot analysis; format: cell-based
[10] = system: HepG2; experiment: Antiproliferative activity against human HepG2 cells incubated for 48 hrs by CCK-8 method; format: functional, cell-based; conditions: HepG2, 48 h
[11] = system: MCF7; experiment: Activation of ERK1/2 pathway in human MCF7 cells assessed as increase in EGF-induced c-Myc phosphorylation at 5 uM incubated for 30 mins by Western blot analysis; format: cell-based
[12] = system: MCF7; experiment: Activation of ERK1/2 pathway in human MCF7 cells assessed as increase in EGF-induced ERK phosphorylation at 5 uM incubated for 30 mins by Western blot analysis; format: cell-based; conditions: filed as activator
[13] = system: 4T1; experiment: Antitumor activity against mouse 4T1 cells implanted in female BALB/c mouse model assessed as tumor growth inhibition at 50 mg/kg, ip qd measured for 18 days relative to control; format: functional; conditions: 4T1, 432 h, time 18 day, read-out: TGI
[14] = system: MCF7; experiment: Induction of autophagy in human MCF7 cells assessed as increase in LC3B-II level at 5 uM by Western blot analysis; format: functional, cell-based
[15] = system: 4T1; experiment: Antiproliferative activity against mouse 4T1 cells incubated for 48 hrs by CCK-8 method; format: functional, cell-based; conditions: 4T1, 48 h
[16] = target: Mitogen-activated protein kinase 1 (Homo sapiens, UniProt P28482); experiment: Inhibition of ERK2 (unknown origin) incubated for 60 mins by luminescence based ADP-Glo kinase assay
Mitogen-activated protein kinase 1, sequence (P28482 whole entry): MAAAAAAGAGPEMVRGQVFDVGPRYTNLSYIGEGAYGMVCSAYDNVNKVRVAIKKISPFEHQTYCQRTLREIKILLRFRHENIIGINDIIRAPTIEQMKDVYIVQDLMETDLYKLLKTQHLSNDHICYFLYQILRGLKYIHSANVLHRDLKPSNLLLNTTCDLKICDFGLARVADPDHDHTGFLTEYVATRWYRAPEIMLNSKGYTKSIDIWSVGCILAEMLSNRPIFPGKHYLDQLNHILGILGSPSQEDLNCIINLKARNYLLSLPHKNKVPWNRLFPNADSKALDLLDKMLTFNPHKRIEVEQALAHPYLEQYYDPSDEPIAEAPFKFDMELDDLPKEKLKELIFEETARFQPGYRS

[17] = target: Mitogen-activated protein kinase 3 (Homo sapiens, UniProt P27361); experiment: Inhibition of ERK1 (unknown origin) incubated for 60 mins by luminescence based ADP-Glo kinase assay
Mitogen-activated protein kinase 3, sequence (P27361 whole entry): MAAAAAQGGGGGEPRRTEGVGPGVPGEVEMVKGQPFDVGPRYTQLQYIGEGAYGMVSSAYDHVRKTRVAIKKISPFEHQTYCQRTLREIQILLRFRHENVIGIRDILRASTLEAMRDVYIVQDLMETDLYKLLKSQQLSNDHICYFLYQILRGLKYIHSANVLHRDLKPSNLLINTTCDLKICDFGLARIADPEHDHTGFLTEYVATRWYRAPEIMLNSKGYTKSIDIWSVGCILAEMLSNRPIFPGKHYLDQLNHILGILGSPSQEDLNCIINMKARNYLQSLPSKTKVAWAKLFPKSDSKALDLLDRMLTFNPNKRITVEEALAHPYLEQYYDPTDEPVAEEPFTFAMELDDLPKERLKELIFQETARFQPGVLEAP

[18] = system: MCF7; experiment: Growth inhibition of human MCF7 cells at 5 uM incubated for 48 hrs by CCK-8 method relative to control; format: functional; conditions: read-out: GI
[19] = system: HepG2; experiment: Growth inhibition of human HepG2 cells at 5 uM incubated for 48 hrs by CCK-8 method relative to control; format: functional; conditions: read-out: GI
[20] = system: 5637; experiment: Growth inhibition of human 5637 cells at 5 uM incubated for 48 hrs by CCK-8 method relative to control; format: functional; conditions: read-out: GI
[21] = system: A549; experiment: Growth inhibition of human A549 cells at 5 uM incubated for 48 hrs by CCK-8 method relative to control; format: functional; conditions: read-out: GI

SMILES: CC(C)Nc1cc(-c2c[nH]c(C(=O)N[C@H](CO)c3cccc(Cl)c3)c2)c(Cl)cn1 [ULIXERTINIB]
- IC50 [1]: > 10 µM
- IC50 [2]: > 10 µM
- Activity [3]: Active
- IC50 [4]: 5.39 µM
- IC50 [5]: > 10 µM
- Activity [6]: Active
- IC50 [7]: > 10 µM
- IC50 [8]: > 10 µM
- Activity [9]: inactive
- IC50 [10]: 6.12 µM
- Activity [11]: inactive
- Activity [12]: Active
- inhibition in vivo at 50 mg/kg [13]: 26.9%
- Activity [14]: Active
- IC50 [15]: > 10 µM

SMILES: CC(=O)N[C@@H](Cc1ccccc1)Cn1cnc2ccccc21
- IC50 [16]: > 10 µM
- IC50 [17]: > 10 µM

SMILES: O=c1[nH]cc(F)c(=O)[nH]1 [FLUOROURACIL]
- IC50 [1]: 7.4 µM
- IC50 [2]: > 10 µM
- IC50 [5]: > 10 µM
- IC50 [7]: 5.67 µM
- IC50 [8]: 6 µM
- IC50 [10]: > 10 µM
- IC50 [15]: > 10 µM

SMILES: Cc1n(C[C@H](Cc2ccccc2)NC(=O)Nc2cc(C(F)(F)F)cc(C(F)(F)F)c2)cc[n+]1Cc1ccccc1
- IC50 [16]: 0.376 µM
- inhibition of growth at 5 µM [18]: 40.5%
- inhibition of growth at 5 µM [19]: 20.8%
- inhibition of growth at 5 µM [20]: 12.8%
- inhibition of growth at 5 µM [21]: 2.07%

SMILES: CC(=O)N[C@@H](Cc1ccccc1)Cn1c[n+](Cc2cccc3ccccc23)c2ccccc21
- IC50 [16]: > 10 µM
- IC50 [17]: > 10 µM

SMILES: O=C(Nc1cc(C(F)(F)F)cc(C(F)(F)F)c1)N[C@@H](Cc1ccccc1)Cn1cc[n+](Cc2ccccc2)c1
- IC50 [16]: 0.272 µM
- inhibition of growth at 5 µM [18]: 82%
- inhibition of growth at 5 µM [19]: 38.1%
- inhibition of growth at 5 µM [20]: 61.9%
- inhibition of growth at 5 µM [21]: 9.26%

SMILES: O=C(N[C@@H](Cc1ccccc1)Cn1c[n+](Cc2cccc3ccccc23)c2ccccc21)c1ccccc1
- IC50 [16]: > 10 µM
- IC50 [17]: > 10 µM

SMILES: CC(C)[C@@H](Cn1c[n+](Cc2ccccc2)c2ccccc21)NC(=O)Nc1cc(C(F)(F)F)cc(C(F)(F)F)c1
- IC50 [16]: 0.285 µM
- inhibition of growth at 5 µM [18]: 91.9%
- IC50 [8]: 3.37 µM
- inhibition of growth at 5 µM [19]: 39.5%
- inhibition of growth at 5 µM [20]: 56.5%
- inhibition of growth at 5 µM [21]: 30.2%

SMILES: CC[C@@H](C)[C@@H](Cn1c[n+](Cc2ccccc2)c2ccccc21)NC(=O)Nc1cc(C(F)(F)F)cc(C(F)(F)F)c1
- IC50 [1]: 2.94 µM
- IC50 [16]: 0.283 µM
- IC50 [4]: 3.92 µM
- inhibition of growth at 5 µM [18]: 100%
- IC50 [8]: 2.68 µM
- inhibition of growth at 5 µM [19]: 100%
- IC50 [10]: 2.33 µM
- inhibition of growth at 5 µM [20]: 99.5%
- inhibition of growth at 5 µM [21]: 97.8%

SMILES: CC[C@@H](C)[C@@H](Cn1cc(C(F)(F)F)[n+](Cc2ccccc2)c1)NC(=O)Nc1cc(C(F)(F)F)cc(C(F)(F)F)c1
- IC50 [1]: 3.47 µM
- IC50 [16]: 0.507 µM
- inhibition of growth at 5 µM [18]: 100%
- IC50 [8]: 3.48 µM
- inhibition of growth at 5 µM [19]: 13.9%
- inhibition of growth at 5 µM [20]: 96.8%
- inhibition of growth at 5 µM [21]: 23.5%

SMILES: O=C(N[C@@H](Cc1ccccc1)Cn1cnc2ccccc21)c1ccccc1
- IC50 [16]: > 10 µM
- IC50 [17]: > 10 µM

SMILES: CC[C@@H](C)[C@@H](Cn1cc[n+](Cc2ccccc2)c1C)NC(=O)Nc1cc(C(F)(F)F)cc(C(F)(F)F)c1
- IC50 [16]: 0.406 µM
- inhibition of growth at 5 µM [18]: 64%
- inhibition of growth at 5 µM [19]: 71.3%
- inhibition of growth at 5 µM [20]: 17.6%
- inhibition of growth at 5 µM [21]: 8.26%

SMILES: O=C(Nc1cc(C(F)(F)F)cc(C(F)(F)F)c1)N[C@@H](Cc1ccccc1)Cn1cc(C(F)(F)F)[n+](Cc2ccccc2)c1
- IC50 [16]: 0.297 µM
- inhibition of growth at 5 µM [18]: 19.4%
- inhibition of growth at 5 µM [19]: 31.2%
- inhibition of growth at 5 µM [20]: 26.4%
- inhibition of growth at 5 µM [21]: 13.5%

SMILES: CC(C)[C@@H](Cn1cc[n+](Cc2ccccc2)c1)NC(=O)Nc1cc(C(F)(F)F)cc(C(F)(F)F)c1
- IC50 [16]: 0.606 µM
- inhibition of growth at 5 µM [18]: 55.7%
- inhibition of growth at 5 µM [19]: 24.5%
- inhibition of growth at 5 µM [20]: 31.5%
- inhibition of growth at 5 µM [21]: 7.18%

SMILES: Cc1n(C[C@@H](NC(=O)Nc2cc(C(F)(F)F)cc(C(F)(F)F)c2)C(C)C)cc[n+]1Cc1ccccc1
- IC50 [16]: 0.535 µM
- inhibition of growth at 5 µM [18]: 7.92%
- inhibition of growth at 5 µM [19]: -4.95%
- inhibition of growth at 5 µM [20]: 21.1%
- inhibition of growth at 5 µM [21]: 7.87%

SMILES: O=C(Nc1cc(C(F)(F)F)cc(C(F)(F)F)c1)N[C@@H](Cc1ccccc1)Cn1c[n+](Cc2ccccc2)c2ccccc21
- IC50 [16]: 0.206 µM
- inhibition of growth at 5 µM [18]: 99.5%
- IC50 [8]: 1.55 µM
- inhibition of growth at 5 µM [19]: 35.3%
- inhibition of growth at 5 µM [20]: 56.8%
- inhibition of growth at 5 µM [21]: 50.6%

SMILES: CC[C@@H](C)[C@@H](Cn1cc[n+](Cc2ccccc2)c1)NC(=O)Nc1cc(C(F)(F)F)cc(C(F)(F)F)c1
- IC50 [16]: 0.483 µM
- inhibition of growth at 5 µM [18]: 86.9%
- inhibition of growth at 5 µM [19]: 47.2%
- inhibition of growth at 5 µM [20]: 85.6%
- inhibition of growth at 5 µM [21]: 8.36%
